From ChEMBL document CHEMBL1201862, “PubChem BioAssay data set” (2004) come the findings set out here.

Test systems include A498; CCRF-CEM; HCC 2998; HCT-116; HCT-15; HL-60; HOP-62; K562; MCF7; MDA-MB-231; MDA-MB-435; MOLT-4; OVCAR-3; OVCAR-8; PC-3; SF-295; SN12C; SR; SW-620; U-251.
Common to all, as to assay: NCI-60 cell line screen, 48 h

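1) Cells in 96-well plates. 2) Compound, 48 h, 5 concentrations. 3) Linear interpolation between surrounding doses. 4) Unreached endpoint = highest concentration. Abbreviation: GI50, concentration required for 50% inhibition of growth.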 Activity calls are given as the source filed them. Cut-off read from the data, not from the text of the source: active = GI50 up to about 1.1 µM and inactive = higher. Where only a bound is given, the exact number is not on record here.

On to `COc1ccc2c(c1)/C(=C\c1c(C)nc3sc(C)cn13)C(=O)N2`, for which the GI50 with A498 is 0.531 µM (active); in the assay on CCRF-CEM, 0.455 µM (active); with HCC 2998, 0.337 µM (active); in the assay on HCT-116, 0.498 µM (active); in the assay on HCT-15, 0.49 µM; with HL-60 it was 0.292 µM (active). For the same compound, the GI50 was 1.53 µM (inactive) with HOP-62; 0.446 µM (active) in the assay with K562; 0.332 µM (active) in the assay with MCF7; 0.855 µM (active) with MDA-MB-231; 0.106 µM (active) in the assay on MDA-MB-435; 0.778 µM (active) with MOLT-4. The GI50 in the assay on OVCAR-3 is 0.297 µM (active); with OVCAR-8 it was 2.94 µM (inactive); in the assay on PC-3, 0.385 µM (active); in the assay with SF-295 it was 0.309 µM (active); in the assay on SN12C it was 8.49 µM (inactive); in the assay with SR it was 0.409 µM (active). In addition, the GI50 in the assay with SW-620 is 0.687 µM (active); with U-251, 0.217 µM (active).
On to `O=C(O)c1cc(=O)c2c(OCC(O)COc3cccc4oc(C(=O)O)cc(=O)c34)cccc2o1`, for which the GI50 in the assay with A498 was > 59 µM (inactive); in the assay with CCRF-CEM, > 71 µM (inactive); in the assay on HCC 2998 it was > 100 µM (inactive); in the assay with HCT-116 it was > 74.8 µM (inactive); in the assay on HCT-15, greater than 100 µM; in the assay on HL-60, > 100 µM (inactive). The GI50 was > 91.2 µM (inactive) with HOP-62; > 90.2 µM (inactive) in the assay with K562; > 85.1 µM (inactive) in the assay on MCF7; > 81.1 µM (inactive) with MDA-MB-231; > 67.5 µM (inactive) in the assay on MDA-MB-435; > 87.7 µM (inactive) in the assay on MOLT-4. In addition, the GI50 was > 100 µM (inactive) in the assay with OVCAR-3; 99.5 µM (inactive) in the assay with OVCAR-8; > 100 µM (inactive) with PC-3; > 95.5 µM (inactive) in the assay on SF-295; > 100 µM (inactive) in the assay with SN12C; > 81.8 µM (inactive) with SR. Also, the GI50 was > 83 µM (inactive) with SW-620 and > 75.2 µM (inactive) in the assay with U-251.
In the case of `S=C(S)N1CCN(c2cccc(Cl)c2)CC1`, the GI50 is > 100 µM (inactive) in the assay with A498; 34.9 µM (inactive) in the assay on CCRF-CEM; 52.6 µM (inactive) in the assay with HCC 2998; 41.4 µM (inactive) with HCT-116; greater than 100 µM with HCT-15; 34.9 µM (inactive) with HL-60. The GI50 was 82.8 µM (inactive) in the assay with HOP-62; 48.9 µM (inactive) with K562; > 100 µM (inactive) in the assay with MCF7; 68.9 µM (inactive) in the assay on MDA-MB-231; > 100 µM (inactive) with MDA-MB-435; 78.3 µM (inactive) with MOLT-4. The GI50 with OVCAR-3 is > 100 µM (inactive); in the assay on OVCAR-8, > 100 µM (inactive); in the assay with PC-3, 66.8 µM (inactive); in the assay with SF-295, > 100 µM (inactive); with SN12C, > 100 µM (inactive); in the assay with SR, 39.4 µM (inactive). The GI50 was 65.3 µM (inactive) in the assay with SW-620 and 44.3 µM (inactive) in the assay on U-251.
For `COc1ccc(-c2cc(C3CC3)nc(SCC(=O)O)c2C#N)cc1`, the GI50 in the assay with A498 was > 100 µM (inactive); with CCRF-CEM it was 57.8 µM (inactive); with HCC 2998 it was > 100 µM (inactive); with HCT-116 it was > 100 µM (inactive); with HCT-15, 65.8 µM; in the assay with HL-60 it was 54.5 µM (inactive). Further, the GI50 in the assay on HOP-62 was > 100 µM (inactive); in the assay on K562 it was 64.3 µM (inactive); in the assay on MCF7, 94.4 µM (inactive); in the assay on MDA-MB-231, > 100 µM (inactive); in the assay with MDA-MB-435, > 100 µM (inactive); with MOLT-4, 60.3 µM (inactive). Also, the GI50 is 83.2 µM (inactive) in the assay with OVCAR-3; > 100 µM (inactive) in the assay on OVCAR-8; 79.8 µM (inactive) with PC-3; 60.3 µM (inactive) with SF-295; > 100 µM (inactive) with SN12C; 55.8 µM (inactive) in the assay with SR. Also, the GI50 in the assay on SW-620 was > 100 µM (inactive); with U-251, 58.9 µM (inactive).
`CC(=O)O[C@H]1C[C@@H](O[C@H]2[C@@H](O)C[C@H](O[C@H]3[C@@H](O)C[C@H](O[C@H]4CC[C@@]5(C)[C@H](CC[C@@H]6[C@@H]5C[C@@H](O)[C@]5(C)[C@@H](C7=CC(=O)OC7)CC[C@]65O)C4)O[C@@H]3C)O[C@@H]2C)O[C@H](C)[C@H]1O.CC(=O)O[C@H]1[C@@H](O)C[C@@H](O[C@H]2[C@@H](O)C[C@H](O[C@H]3[C@@H](O)C[C@H](O[C@H]4CC[C@@]5(C)[C@H](CC[C@@H]6[C@@H]5C[C@@H](O)[C@]5(C)[C@@H](C7=CC(=O)OC7)CC[C@]65O)C4)O[C@@H]3C)O[C@@H]2C)O[C@@H]1C`: the GI50 was 0.0386 µM (active) in the assay on A498; 0.617 µM (active) with CCRF-CEM; 0.104 µM (active) in the assay with HCC 2998; 0.0262 µM (active) in the assay on HCT-116; 0.0308 µM in the assay with HCT-15; 0.0382 µM (active) in the assay on HL-60. The GI50 is 0.0336 µM (active) in the assay with HOP-62; 0.0291 µM (active) in the assay with K562; 0.0415 µM (active) with MCF7; 0.162 µM (active) in the assay with MDA-MB-231; 0.0443 µM (active) with MDA-MB-435; 0.0167 µM (active) with MOLT-4. The GI50 is 0.0119 µM (active) in the assay on OVCAR-3; 0.0378 µM (active) in the assay with OVCAR-8; 0.0322 µM (active) with PC-3; 0.0299 µM (active) in the assay with SF-295; 0.0423 µM (active) in the assay on SN12C; 0.0443 µM (active) in the assay on SR. Also, the figures for the GI50 in the assay with SW-620 and in the assay with U-251 were 0.0435 µM (active) and 0.0302 µM (active), respectively.
Regarding `CCOC(=O)c1nc2ccc(C(F)(F)F)cc2[nH]c1=O`, the GI50 in the assay with A498 was > 100 µM (inactive); in the assay on CCRF-CEM, > 100 µM (inactive); with HCC 2998 it was > 100 µM (inactive); with HCT-116 it was > 100 µM (inactive); in the assay on HCT-15 it was greater than 100 µM; in the assay with HL-60 it was > 100 µM (inactive). For the same compound, the GI50 in the assay with HOP-62, in the assay with K562, with MCF7, with MDA-MB-231, with MDA-MB-435 and with MOLT-4 was > 100 µM (inactive) in each case. Also, the GI50 with OVCAR-3, with OVCAR-8, in the assay with PC-3, in the assay with SF-295, with SN12C and in the assay on SR was > 100 µM (inactive) in each case. Besides, the GI50 in the assay with SW-620 and in the assay with U-251 was > 100 µM (inactive) throughout.
Consider `CC(=O)Nc1nc(NC(C)=O)c2nc(CO)[nH]c2n1`, for which the GI50 in the assay on A498 is > 100 µM (inactive); in the assay with CCRF-CEM it was > 100 µM (inactive); in the assay with HCC 2998, > 100 µM (inactive); with HCT-116 it was > 100 µM (inactive); in the assay on HCT-15, greater than 100 µM; with HL-60, > 100 µM (inactive). In addition, the GI50 in the assay on HOP-62, in the assay on K562, with MCF7, in the assay with MDA-MB-231, in the assay with MDA-MB-435 and in the assay with MOLT-4 was > 100 µM (inactive) each time. Also, the GI50 with OVCAR-3, in the assay with OVCAR-8, in the assay on PC-3, with SF-295, with SN12C and in the assay with SR was > 100 µM (inactive) in each case. Further, the GI50 in the assay with SW-620 and in the assay with U-251 was > 100 µM (inactive) throughout.
`CCC(=C/[C@H](C)C/C=C/C(C)=C/[C@@H](C)C(=O)[C@@H](C)[C@H](O)[C@@H](C)CC)/C=C/[C@H]1CC=CC(=O)O1` [CALLYSTATIN A]: the GI50 is < 0.0012 µM (active) in the assay with A498; < 0.0012 µM (active) with CCRF-CEM; < 0.0012 µM (active) with HCC 2998; < 0.0012 µM (active) in the assay on HCT-116; less than 0.0012 µM with HCT-15; < 0.0012 µM (active) with HL-60. For the same compound, the GI50 in the assay with HOP-62 is < 0.0012 µM (active); in the assay with K562, < 0.0012 µM (active); in the assay with MCF7, < 0.0012 µM (active); in the assay with MDA-MB-231 it was < 0.0012 µM (active); with MDA-MB-435 it was < 0.0012 µM (active); in the assay with MOLT-4, 0.0887 µM (active). The GI50 in the assay on OVCAR-3, in the assay on OVCAR-8, in the assay with PC-3, in the assay on SF-295, in the assay with SN12C and in the assay on SR was < 0.0012 µM (active) throughout. For the same compound, the GI50 in the assay with SW-620 and in the assay on U-251 was < 0.0012 µM (active) throughout.
For `COc1ccc(/C=N/Nc2nc(=S)[nH]c3[nH]ncc23)cc1`, the GI50 with A498 was 40.9 µM (inactive); with CCRF-CEM, 24.7 µM (inactive); with HCC 2998, 35 µM (inactive); in the assay with HCT-116, > 100 µM (inactive); in the assay with HCT-15 it was greater than 100 µM; in the assay with HL-60, > 100 µM (inactive). Besides, the GI50 in the assay on HOP-62 was 29.9 µM (inactive); in the assay on K562, > 100 µM (inactive); in the assay with MCF7, 43.5 µM (inactive); in the assay on MDA-MB-231, 34.6 µM (inactive); in the assay with MDA-MB-435, 30.6 µM (inactive); in the assay on MOLT-4 it was > 100 µM (inactive). The GI50 is 60.7 µM (inactive) in the assay with OVCAR-3; > 100 µM (inactive) in the assay with OVCAR-8; 52.2 µM (inactive) with PC-3; 40.6 µM (inactive) with SF-295; > 100 µM (inactive) in the assay on SN12C; > 100 µM (inactive) with SR. Besides, the GI50 in the assay on SW-620 is > 100 µM (inactive); with U-251 it was 19.1 µM (inactive).
